# Reference: patent US20260262643A1, “HERBICIDAL BENZOXAZINES” (FMC CORPORATION, priority 2022, published 2026)
# Where two headings read alike, the source gives them in different places.
# How the values were obtained:
# ryegrass, Italian = experiment: Test A postemergence; format: in vivo, Lolium multiflorum; settings: Lolium multiflorum, post-emergence, 240 h; for pest or weed control at 125 g/ha: 125 g ai/ha; for pest or weed control at 500 g/ha: 500 g ai/ha
# In short: (§1)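 Greenhouse pot test, 10 days. Compound (non-phytotoxic solvent, surfactant) sprayed on soil at seeding or on seedlings at one- to two-leaf stage. Visual injury rated 0–100 against untreated plants.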
# blackgrass [1] = experiment: Test A postemergence; format: in vivo, Alopecurus myosuroides; settings: Alopecurus myosuroides, post-emergence, 240 h; for pest or weed control at 125 g/ha: 125 g ai/ha; for pest or weed control at 500 g/ha: 500 g ai/ha
# In short: as §1
# soybean = experiment: Test A preemergence; format: in vivo, Glycine max; settings: Glycine max, pre-emergence, 240 h, read-out: Plant response rating, Soybean; for plant injury at 125 g/ha: 125 g ai/ha, visual injury after 10 days, 0 to 100 scale, 0 is no effect, 100 is complete control; for plant injury at 500 g/ha: 500 g ai/ha, 0 to 100 scale (0 no effect, 100 complete control), 10 days
# In short: as §1
# galium = experiment: Test A postemergence; format: in vivo, Galium aparine; settings: Galium, post-emergence, 240 h; for pest or weed control at 125 g/ha: 125 g ai/ha; for pest or weed control at 500 g/ha: 500 g ai/ha
# In short: as §1
# ducksalad = experiment: Test B flooded paddy test; format: in vivo, Heteranthera limosa; settings: Heteranthera limosa, 312 h, 250 g ai/ha, Flood, 13 days, 0 to 100 scale (0 no effect, 100 complete control); read-out: Plant response rating, Ducksalad
# In short: (§2)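 Plants at the 2-leaf stage were flooded to 3 cm above the soil, and test compounds were applied directly into the paddy water, with that depth held throughout. After 13 days in a greenhouse, injury was rated visually against untreated controls on a 0–100 scale (100 = complete control).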
# goosegrass [2] = experiment: Test A postemergence; format: in vivo, Eleusine indica; settings: Eleusine indica, post-emergence, 240 h; for pest or weed control at 125 g/ha: 125 g ai/ha; for pest or weed control at 500 g/ha: 500 g ai/ha
# In short: as §1
# rice = experiment: Test B flooded paddy test; format: in vivo, Oryza sativa; settings: Oryza sativa, 312 h; 250 g ai/ha, Flood, 13 days, 0 to 100 scale (0 no effect, 100 complete control); read-out: Plant response rating, Rice
# In short: as §2
# wheat = experiment: Test A postemergence; format: in vivo, Triticum aestivum; settings: Triticum aestivum, post-emergence, 240 h; for plant injury at 125 g/ha: 125 g ai/ha; for plant injury at 500 g/ha: 500 g ai/ha
# In short: as §1
# oat, wild [3] = experiment: Test A preemergence; format: in vivo, Avena fatua; settings: Avena fatua, pre-emergence, 240 h, read-out: Plant response rating, Oat, Wild; for pest or weed control at 125 g/ha: 125 g ai/ha, visual injury after 10 days, 0 to 100 scale, 0 is no effect, 100 is complete control; for pest or weed control at 500 g/ha: 500 g ai/ha, 0 to 100 scale (0 no effect, 100 complete control), 10 days
# In short: as §1
# sedge, umbrella = experiment: Test B flooded paddy test; format: in vivo, Cyperus difformis; settings: Cyperus difformis, 312 h; 250 g ai/ha, Flood, 13 days, 0 to 100 scale (0 no effect, 100 complete control); read-out: Plant response rating, Sedge, Umbrella
# In short: as §2
# oat, wild [4] = experiment: Test A postemergence; format: in vivo, Avena fatua; settings: Avena fatua, post-emergence, 240 h; for pest or weed control at 125 g/ha: 125 g ai/ha; for pest or weed control at 500 g/ha: 500 g ai/ha
# In short: as §1
# goosegrass [5] = experiment: Test A preemergence; format: in vivo, Eleusine indica; settings: Eleusine indica, pre-emergence, 240 h, read-out: Plant response rating, Goosegrass; for pest or weed control at 125 g/ha: 125 g ai/ha, visual injury after 10 days, 0 to 100 scale, 0 is no effect, 100 is complete control; for pest or weed control at 500 g/ha: 500 g ai/ha, 0 to 100 scale (0 no effect, 100 complete control), 10 days
# In short: as §1
# blackgrass [6] = experiment: Test A preemergence; format: in vivo, Alopecurus myosuroides; settings: Alopecurus myosuroides, pre-emergence, 240 h, read-out: Plant response rating, Blackgrass; for pest or weed control at 125 g/ha: 125 g ai/ha, visual injury after 10 days, 0 to 100 scale, 0 is no effect, 100 is complete control; for pest or weed control at 500 g/ha: 500 g ai/ha, 0 to 100 scale (0 no effect, 100 complete control), 10 days
# In short: as §1
# kochia = experiment: Test A preemergence; format: in vivo, Bassia scoparia; settings: Bassia scoparia, pre-emergence, 240 h, read-out: Plant response rating, Kochia; for pest or weed control at 125 g/ha: 125 g ai/ha, visual injury after 10 days, 0 to 100 scale, 0 is no effect, 100 is complete control; for pest or weed control at 500 g/ha: 500 g ai/ha, 0 to 100 scale (0 no effect, 100 complete control), 10 days
# In short: as §1
# [7] = postemergence, 10 days, visual injury, 0 to 100 scale (0 no effect, 100 complete control), read-out: Plant response rating, Ryegrass, Italian
# [8] = postemergence, 10 days, visual injury, 0 to 100 scale (0 no effect, 100 complete control), read-out: Plant response rating, Blackgrass
# [9] = postemergence, 10 days, visual injury, 0 to 100 scale (0 no effect, 100 complete control), read-out: Plant response rating, Galium
# [10] = postemergence, 10 days, visual injury, 0 to 100 scale (0 no effect, 100 complete control), read-out: Plant response rating, Goosegrass
# [11] = postemergence, 10 days, visual injury, 0 to 100 scale (0 no effect, 100 complete control), read-out: Plant response rating, Wheat
# [12] = postemergence, 10 days, visual injury, 0 to 100 scale (0 no effect, 100 complete control), read-out: Plant response rating, Oat, Wild
Compound,plant injury at 125 g/ha (soybean),plant injury at 500 g/ha (soybean),pest or weed control at 250 g/ha (ducksalad),plant injury at 250 g/ha (rice),"pest or weed control at 125 g/ha (oat, wild [3])","pest or weed control at 500 g/ha (oat, wild [3])","pest or weed control at 250 g/ha (sedge, umbrella)",pest or weed control at 125 g/ha (goosegrass [5]),pest or weed control at 500 g/ha (goosegrass [5]),pest or weed control at 125 g/ha (blackgrass [6]),pest or weed control at 500 g/ha (blackgrass [6]),pest or weed control at 125 g/ha (kochia),pest or weed control at 500 g/ha (kochia),also measured
"Cc1ccc(-n2cnc(C3CCC3)n2)cc1C(=O)N1C[C@H](C)Oc2c(Cl)cccc21 [Compound 96, [(2S)-8-Chloro-2,3-dihydro-2-methyl-4H-1,4-benzoxazin-4-yl][5-(3-cyclobutyl-1H-1,2,4-triazol-1-yl)-2-methylphenyl]methanone]",50%,50%,65%,0%,50%,80%,98%,100%,100%,40%,80%,30%,100%,"pest or weed control at 125 g/ha (ryegrass, Italian; postemergence, 10 days, 0 to 100 scale (0 no effect, 100 complete control), read-out: Ryegrass, Italian plant response rating): 50%; pest or weed control at 500 g/ha (ryegrass, Italian; [7]): 100%; pest or weed control at 125 g/ha (blackgrass [1]; postemergence, 10 days, 0 to 100 scale (0 no effect, 100 complete control), read-out: Blackgrass plant response rating): 50%; pest or weed control at 500 g/ha (blackgrass [1]; [8]): 90%; pest or weed control at 125 g/ha (galium; postemergence, 10 days, 0 to 100 scale (0 no effect, 100 complete control), read-out: Galium plant response rating): 100%; pest or weed control at 500 g/ha (galium; [9]): 100%; pest or weed control at 125 g/ha (goosegrass [2]; postemergence, 10 days, 0 to 100 scale (0 no effect, 100 complete control), read-out: Goosegrass plant response rating): 30%; pest or weed control at 500 g/ha (goosegrass [2]; [10]): 60%; plant injury at 125 g/ha (wheat; postemergence, 10 days, 0 to 100 scale (0 no effect, 100 complete control), read-out: Wheat plant response rating): 30%; plant injury at 500 g/ha (wheat; [11]): 40%; pest or weed control at 125 g/ha (oat, wild [4]; postemergence, 10 days, 0 to 100 scale (0 no effect, 100 complete control), read-out: Oat, Wild plant response rating): 30%; pest or weed control at 500 g/ha (oat, wild [4]; [12]): 80%"
"Cc1cccc2c1O[C@@H](C)CN2C(=O)c1cccc(-n2cnc(Br)n2)c1 [Compound 61, [3-(3-Bromo-1H-1,2,4-triazol-1-yl)phenyl][(2S)-2,3-dihydro-2,8-dimethyl-4H-1,4-benzoxazin-4-yl]methanone]",0%,30%,15%,0%,30%,30%,45%,90%,90%,50%,70%,20%,60%,"pest or weed control at 125 g/ha (ryegrass, Italian; [7]): 40%; pest or weed control at 500 g/ha (ryegrass, Italian; Postemergence, 0 to 100 scale, read-out: Plant response rating, Ryegrass, Italian): 40%; pest or weed control at 125 g/ha (blackgrass [1]; [8]): 20%; pest or weed control at 500 g/ha (blackgrass [1]; Postemergence, 0 to 100 scale, read-out: Plant response rating, Blackgrass): 40%; pest or weed control at 125 g/ha (galium; [9]): 70%; pest or weed control at 500 g/ha (galium; Postemergence, 0 to 100 scale, read-out: Plant response rating, Galium): 100%; pest or weed control at 125 g/ha (goosegrass [2]; [10]): 10%; pest or weed control at 500 g/ha (goosegrass [2]; Postemergence, 0 to 100 scale, read-out: Plant response rating, Goosegrass): 50%; plant injury at 125 g/ha (wheat; [11]): 10%; plant injury at 500 g/ha (wheat; Postemergence, 0 to 100 scale, read-out: Plant response rating, Wheat): 20%; pest or weed control at 125 g/ha (oat, wild [4]; [12]): 10%; pest or weed control at 500 g/ha (oat, wild [4]; Postemergence, 0 to 100 scale, read-out: Plant response rating, Oat, Wild): 20%"
